Measured values: patent publication US7183260B2, “C-terminal modified oxamyl dipeptides as inhibitors of the ICE/ced-3 family of cysteine proteases” (Idun Pharmaceuticals, Inc., priority 1998, dated 2007)
Where a SMILES comes first, the peptide text is derived from it. The star is where a group is joined. Cbz = O=C(OCc1ccccc1)*; CH2F = FC*

Legend:
Format in all cases: biochemical
[1] = molecular target: T1, CPP32 (Homo sapiens, UniProt P42574); test: Fluorescence enzyme assay, determination of IC50 values (CPP32); settings: recombinant enzyme, 30 min preincubation, substrate Acetyl-Asp-Glu-Val-Asp-AMC, room temperature
T1 sequence (P42574 29-175 limits assumed): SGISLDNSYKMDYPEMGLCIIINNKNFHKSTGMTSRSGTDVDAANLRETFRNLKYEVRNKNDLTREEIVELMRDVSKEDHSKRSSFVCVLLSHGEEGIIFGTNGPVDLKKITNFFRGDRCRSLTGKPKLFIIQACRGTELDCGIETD
T1 sequence (P42574 176-277 limits assumed): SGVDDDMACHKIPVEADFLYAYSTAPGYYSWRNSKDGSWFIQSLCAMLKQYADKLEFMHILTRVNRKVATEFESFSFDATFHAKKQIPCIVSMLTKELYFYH
Method: (§1) Fluorescence enzyme assays detecting the activity of the compounds of Formula I utilizing the recombinant ICE and CPP32 enzymes are performed essentially according to Thornberry et al. (Nature, 356:768:774 (1992)) and Nicholson et al. (Nature, 376:37–43 (1995)) respectively, (herein incorporated by reference) in 96 well microtiter plates. The substrate is Acetyl-Tyr-Val-Ala-Asp-amino-4-methylcoumarin (AMC) for the ICE assay and Acetyl-Asp-Glu-Val-Asp-amino-4-methylcoumarin for the CPP32, Mch2, Mch3 and Mch5 assays. Enzyme reactions are run in ICE buffer (25 mM HEPES, 1 mM EDTA, 0.1% CHAPS, 10% sucrose, pH 7.5) containing 2 mM DTT at room temperature in duplicate.
(§2) The enzyme and the compound of Formula I to be assayed are allowed to preincubate in the microtitre plate wells for 30 minutes at room temperature prior to the addition of substrate to initiate the reaction. Fluorescent AMC product formation is monitored for one hour at room temperature by measuring the fluorescence emission at 460 nm using an excitation wavelength of 360 nm.
(§3) The reference compound for this assay was Cbz-ValAlaAsp-H and the values are denoted in Table 1 as “Reference”.

[2] = molecular target: T2, MCH-5 (Homo sapiens, UniProt Q14790); test: Fluorescence enzyme assay, determination of IC50 values (Mch5); settings: 30 min preincubation, substrate Acetyl-Asp-Glu-Val-Asp-AMC, room temperature
Method: The substrate is Acetyl-Tyr-Val-Ala-Asp-amino-4-methylcoumarin (AMC) for the ICE assay and Acetyl-Asp-Glu-Val-Asp-amino-4-methylcoumarin for the CPP32, Mch2, Mch3 and Mch5 assays. Enzyme reactions are run in ICE buffer (25 mM HEPES, 1 mM EDTA, 0.1% CHAPS, 10% sucrose, pH 7.5) containing 2 mM DTT at room temperature in duplicate.
as §2, §3

[3] = molecular target: T3, mICE (Mus musculus, UniProt P29452); test: Fluorescence enzyme assay, determination of IC50 values (ICE); settings: recombinant enzyme, 30 min preincubation, substrate Acetyl-Tyr-Val-Ala-Asp-AMC, room temperature
T3 sequence (P29452 123-296 limits assumed): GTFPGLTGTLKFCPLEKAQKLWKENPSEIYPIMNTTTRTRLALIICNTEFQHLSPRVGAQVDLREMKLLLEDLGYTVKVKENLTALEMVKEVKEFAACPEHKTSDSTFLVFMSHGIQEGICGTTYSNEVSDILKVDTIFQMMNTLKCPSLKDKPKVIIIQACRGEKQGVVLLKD
T3 sequence (P29452 315-402 limits assumed): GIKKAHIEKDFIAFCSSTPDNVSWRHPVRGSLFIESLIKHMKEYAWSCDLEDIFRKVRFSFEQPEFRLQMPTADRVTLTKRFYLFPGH
Method: as §1, §2, §3

[4] = molecular target: T4, MCH-2 (Homo sapiens, UniProt P55212); test: Fluorescence enzyme assay, determination of IC50 values (Mch2); settings: 30 min preincubation, substrate Acetyl-Asp-Glu-Val-Asp-AMC, room temperature
T4 sequence (P55212 24-179 limits assumed): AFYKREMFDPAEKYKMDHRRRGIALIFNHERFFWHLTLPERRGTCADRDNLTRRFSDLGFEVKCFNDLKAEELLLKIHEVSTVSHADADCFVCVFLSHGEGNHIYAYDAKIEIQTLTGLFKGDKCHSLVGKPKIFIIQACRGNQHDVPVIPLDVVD
T4 sequence (P55212 194-293 limits assumed): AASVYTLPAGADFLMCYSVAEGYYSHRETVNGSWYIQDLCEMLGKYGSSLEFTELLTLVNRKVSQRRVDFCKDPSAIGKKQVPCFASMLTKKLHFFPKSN
Method: as §1, §2, §3

[5] = molecular target: T5, MCH-3 (Homo sapiens, UniProt P55210); test: Fluorescence enzyme assay, determination of IC50 values (Mch3); settings: 30 min preincubation, substrate Acetyl-Asp-Glu-Val-Asp-AMC, room temperature
T5 sequence (P55210 24-198 limits assumed): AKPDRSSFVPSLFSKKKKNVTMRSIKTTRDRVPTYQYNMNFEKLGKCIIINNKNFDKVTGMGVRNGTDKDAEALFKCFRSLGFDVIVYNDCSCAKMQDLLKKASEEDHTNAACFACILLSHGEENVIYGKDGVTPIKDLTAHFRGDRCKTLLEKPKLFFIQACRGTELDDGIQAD
T5 sequence (P55210 207-303 limits assumed): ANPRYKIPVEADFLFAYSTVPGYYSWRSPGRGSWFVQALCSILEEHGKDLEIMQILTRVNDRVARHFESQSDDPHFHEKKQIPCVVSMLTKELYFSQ
Method: as §1, §2, §3

[6] = molecular target: T4, MCH-2; test: Dissociation constant Ki and irreversible rate constant k3 for irreversible inhibitors (Mch2); settings: continuous assay 60 min, reaction initiated by adding enzyme to substrate-inhibitor mixture
[7] = molecular target: T2, MCH-5; test: Dissociation constant Ki and irreversible rate constant k3 for irreversible inhibitors (Mch5); settings: continuous assay 60 min, reaction initiated by adding enzyme to substrate-inhibitor mixture
[8] = molecular target: T3, mICE; test: Dissociation constant Ki and irreversible rate constant k3 for irreversible inhibitors (ICE); settings: continuous assay 60 min, reaction initiated by adding enzyme to substrate-inhibitor mixture
[9] = molecular target: T1, CPP32; test: Dissociation constant Ki and irreversible rate constant k3 for irreversible inhibitors (CPP32); settings: continuous assay 60 min, reaction initiated by adding enzyme to substrate-inhibitor mixture

T2 sequence (Q14790 217-374 limits assumed, species assumed): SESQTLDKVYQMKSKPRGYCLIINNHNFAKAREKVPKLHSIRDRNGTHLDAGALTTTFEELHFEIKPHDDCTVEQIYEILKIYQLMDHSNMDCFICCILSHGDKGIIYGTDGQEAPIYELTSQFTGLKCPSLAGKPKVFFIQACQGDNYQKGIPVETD
T2 sequence (Q14790 385-479 limits assumed, species assumed): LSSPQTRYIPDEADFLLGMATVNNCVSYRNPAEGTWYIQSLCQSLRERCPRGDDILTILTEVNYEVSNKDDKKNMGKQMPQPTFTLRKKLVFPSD

Structure (SMILES) | IC50 [1] [nM] | IC50 [2] [nM] | IC50 [3] [nM] | IC50 [4] [nM] | IC50 [5] [nM] | Ki [6] [nM] | MCH-2 k3/Ki [6] | Ki [7] [nM] | MCH-5 k3/Ki [7] | Ki [8] [nM] | mICE k3/Ki [8] | CPP32 k3/Ki [9] | Ki [9] [nM]
CC(C)C[C@H](NC(=O)C(=O)Nc1cccc2ccccc12)C(=O)N[C@H](C=O)CC(=O)O [Example 1, (3S)-3-[N-(N′-(1-NAPHTHYL)OXAMYL)LEUCINYL]AMINO-4-OXOBUTANOIC ACID] | 10 | 179 | 27 | 1500 | 267 |  |  |  |  |  |  |  | 
CC(C)[C@H](NC(=O)C(=O)Nc1ccccc1Br)C(=O)N[C@@H](CC(=O)O)C(=O)COc1c(F)c(F)cc(F)c1F [Example 106] |  |  |  |  |  | 19 | 230,000 moles^−1 seconds^−1 | 3.4 | 1,305,000 moles^−1 seconds^−1 | 9 | 1,080,000 moles^−1 seconds^−1 | 276,000 moles^−1 seconds^−1 | 63
CC(C)[C@H](NC(=O)C(=O)Nc1ccccc1I)C(=O)N[C@@H](CC(=O)O)C(=O)COc1c(F)c(F)cc(F)c1F [Example 107] |  |  |  |  |  | 20 | 137,000 moles^−1 seconds^−1 | 4 | 1,026,000 moles^−1 seconds^−1 | 7 | 1,260,000 moles^−1 seconds^−1 | 42,300 moles^−1 seconds^−1 | 510
CC(C)[C@H](NC(=O)C(=O)Nc1c(F)cccc1F)C(=O)N[C@@H](CC(=O)O)C(=O)COc1c(F)c(F)cc(F)c1F [Example 108] |  |  |  |  |  | 8 | 1,083,000 moles^−1 seconds^−1 | 1.9 | 1,830,000 moles^−1 seconds^−1 | 4.8 | 2,680,000 moles^−1 seconds^−1 | 62,900 moles^−1 seconds^−1 | 102
CC(C)[C@H](NC(=O)C(=O)Nc1cc(C(C)(C)C)ccc1C(C)(C)C)C(=O)N[C@@H](CC(=O)O)C(=O)COc1c(F)c(F)cc(F)c1F [Example 109] |  |  |  |  |  | 232 | 8,230 moles^−1 seconds^−1 | 34 | 51,300 moles^−1 seconds^−1 | 25 | 767,000 moles^−1 seconds^−1 | 70,600 moles^−1 seconds^−1 | 193
CC(NC(=O)C(NC(=O)OCc1ccccc1)C(C)C)C(=O)NC(CC(=O)O)C(=O)CF (stereo not drawn) [refer., Cbz-ValAlaAsp-CH2F, reference compound] (Cbz-Val-Ala-Asp-CH2F; configuration not given here) |  |  |  |  |  | 594 | 2,950 moles^−1 seconds^−1 | 18 | 83,300 moles^−1 seconds^−1 | 15 | 214,000 moles^−1 seconds^−1 | 12,200 moles^−1 seconds^−1 | 820
CC(C)[C@H](NC(=O)OCc1ccccc1)C(=O)N[C@@H](C)C(=O)N[C@H](C=O)CC(=O)O [reference, Cbz-ValAlaAsp-H, reference compound] (Cbz-Val-Ala-Asp-aldehyde) | 47000 | 2960 | 64 | > 10000 | > 10000 |  |  |  |  |  |  |  | 
